The source made the active and inactive calls. The calls are words filed in the database; no cut-off is given here.
Key:
[1] = molecular target: T1, Glutamate carboxypeptidase 2 (Homo sapiens, UniProt Q04609); test: Inhibition of PSMA in human LNCaP cells; type: cell-based
Target sequence in this assay (Q04609 whole entry): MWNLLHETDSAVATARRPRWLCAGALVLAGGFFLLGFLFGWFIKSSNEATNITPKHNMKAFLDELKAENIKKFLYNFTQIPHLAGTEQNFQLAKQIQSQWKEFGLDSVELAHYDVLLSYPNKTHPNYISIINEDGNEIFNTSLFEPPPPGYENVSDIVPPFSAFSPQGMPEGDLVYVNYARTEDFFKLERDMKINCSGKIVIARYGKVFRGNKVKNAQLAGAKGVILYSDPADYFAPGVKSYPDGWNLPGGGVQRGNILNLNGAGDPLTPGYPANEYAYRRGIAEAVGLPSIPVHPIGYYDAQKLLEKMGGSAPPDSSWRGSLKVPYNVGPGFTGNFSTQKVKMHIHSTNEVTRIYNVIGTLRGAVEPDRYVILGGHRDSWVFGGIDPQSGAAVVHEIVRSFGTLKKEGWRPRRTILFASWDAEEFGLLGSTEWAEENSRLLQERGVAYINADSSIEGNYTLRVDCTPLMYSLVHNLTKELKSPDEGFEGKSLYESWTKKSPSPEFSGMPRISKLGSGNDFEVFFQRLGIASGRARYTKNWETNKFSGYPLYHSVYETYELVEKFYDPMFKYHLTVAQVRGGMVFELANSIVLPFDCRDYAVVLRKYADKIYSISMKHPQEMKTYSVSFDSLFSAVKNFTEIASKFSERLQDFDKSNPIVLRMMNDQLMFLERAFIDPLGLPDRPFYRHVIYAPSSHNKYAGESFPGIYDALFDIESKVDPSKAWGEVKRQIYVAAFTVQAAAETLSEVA

[2] = molecular target: T1, Glutamate carboxypeptidase 2; test: Reversible inhibition of purified PSMA at 10 times IC50 after 25 mins measured after 100 fold dilution
Target sequence in this assay (Q04609 whole entry, looked up): as the sequence (Q04609 whole entry) above

| IC50 [1] [nM] | Activity [2] | Compound |
| --- | --- | --- |
| 144 | Active | N[C@@H](CCC(=O)N[C@@H](COP(=O)(O)O[C@@H](CCC(=O)O)C(=O)O)C(=O)O)C(=O)O |
| 6100 |  | CCN1/C(=C/C=C/C=C/C2=[N+](CCCCCC(=O)[O-])c3ccc4c(S(=O)(=O)O)cc(S(=O)(=O)O)cc4c3C2(C)C)C(C)(C)c2c1ccc1c(S(=O)(=O)O)cc(S(=O)(=O)O)cc21 |
| 0.55 | Active | CCN1/C(=C/C=C/C=C/C2=[N+](CCCCCC(=O)N[C@@H](CCC(=O)N[C@@H](COP(=O)([O-])O[C@@H](CCC(=O)O)C(=O)O)C(=O)O)C(=O)O)c3ccc4c(S(=O)(=O)O)cc(S(=O)(=O)O)cc4c3C2(C)C)C(C)(C)c2c1ccc1c(S(=O)(=O)O)cc(S(=O)(=O)O)cc21 |

Source: ChEMBL document CHEMBL1287667, “A targeted low molecular weight near-infrared fluorescent probe for prostate cancer” (Bioorg Med Chem Lett, 2010)
